Experimental data taken from ChEMBL document CHEMBL5325396, “Discovery of Novel Acridane-Based Tubulin Polymerization Inhibitors with Anticancer and Potential Immunomodulatory Effects” (J Med Chem, 2023).

Experiments:
HCT-116 = test: Antiproliferative activity against human HCT-116 cells incubated for 48 hrs by MTT assay; format: functional, cell-based; conditions: HCT-116, 48 h
B16-F10 [1] = test: Antiproliferative activity against mouse B16-F10 cells incubated for 48 hrs by MTT assay; format: functional, cell-based; conditions: B16-F10, 48 h
HepG2 = test: Antiproliferative activity against human HepG2 cells incubated for 48 hrs by MTT assay; format: functional, cell-based; conditions: HepG2, 48 h
HeLa = test: cells; conditions: Homo sapiens, 48 h
Description: Antiproliferative activity against human HeLa cells incubated for 48 hrs by MTT assay

B16-F10 [2] = test: Induction of cell cycle arrest in mouse B16-F10 cells assessed as accumulation at G1 phase at 20 nM incubated for 24 hrs by PI staining based flow cytometry (reference value: 52.77 %); format: functional
B16-F10 [3] = test: Induction of cell cycle arrest in mouse B16-F10 cells assessed as accumulation at S phase at 20 nM incubated for 24 hrs by PI staining based flow cytometry (reference value: 21.79 %); format: functional
B16-F10 [4] = test: Induction of cell cycle arrest in mouse B16-F10 cells assessed as accumulation at G2 phase at 20 nM incubated for 24 hrs by PI staining based flow cytometry (reference value: 23.04 %); format: functional
B16-F10 [5] = test: Induction of apoptosis in mouse B16-F10 cells assessed as viable cells at 20 nM incubated for 48 hrs by annexinV-FITC/PI staining based flow cytometry (reference value: 93.6 %); format: functional; conditions: read-out: Activity
B16-F10 [6] = test: Induction of apoptosis in mouse B16-F10 cells assessed as early apoptotic cells at 20 nM incubated for 48 hrs by annexinV-FITC/PI staining based flow cytometry (reference value: 4.25 %); format: functional
B16-F10 [7] = test: Induction of apoptosis in mouse B16-F10 cells assessed as late apoptotic cells at 20 nM incubated for 48 hrs by annexinV-FITC/PI staining based flow cytometry (reference value: 2.06 %); format: functional
B16-F10 [8] = test: Induction of apoptosis in mouse B16-F10 cells assessed as necrotic cells at 20 nM incubated for 48 hrs by annexinV-FITC/PI staining based flow cytometry (reference value: 0.064 %); format: functional
Tubulin = test: Inhibition of tubulin polymerization (unknown origin); format: protein-complex assay, Homo sapiens
[9] = Toxicity in C57 mouse allografted with mouse B16-F10 cells assessed as body weight loss at 10 mg/kg, ip administered consecutively for 14 days; format: organism-based; conditions: in vivo, 336 h, time 14 day
B16-F10 [10] = test: Antitumor activity against mouse B16-F10 cells allografted in C57 mouse assessed as tumor growth inhibition at 10 mg/kg, ip administered consecutively for 14 days; format: functional; conditions: B16-F10, 336 h, time 14 day, read-out: TGI
B16-F10 [11] = test: Immunomodulatory activity in mouse B16-F10 cells allografted in C57 mouse assessed as decrease in PD-L1 level at 10 mg/kg, ip administered consecutively for 14 days relative to control; format: functional; design: scale not given: the % may be the effect or the level left; conditions: time 14 day
B16-F10 [12] = test: Immunomodulatory activity in mouse B16-F10 cells allografted in C57 mouse assessed as increase in CD3-positive CD8-positive cells at 10 mg/kg, ip administered consecutively for 14 days (reference value: 6.66 %); format: functional; conditions: time 14 day

Row | SMILES | IC50 (HCT-116) | IC50 (B16-F10 [1]) | IC50 (HepG2) | IC50 (HeLa) | further results
1 | COC(=O)c1ccc2c(c1)N(C(=O)c1cc(OC)c(OC)c(OC)c1)c1cc(F)ccc1C2 | > 10000 nM | 1260 nM | 630 nM | 1160 nM | –
2 | COc1cc(C(=O)N2c3ccccc3Cc3cccc(OC)c32)cc(OC)c1OC | 208 nM | 92 nM | 161 nM | 117 nM | –
3 | COc1cc2c(c(OC)c1OC)-c1ccc(OC)c(=O)cc1[C@@H](NC(C)=O)CC2 [COLCHICINE] | – | 88 nM | 25 nM | 126 nM | Activity (B16-F10 [2]): 10.06%; Activity (B16-F10 [3]): 33.02%; Activity (B16-F10 [4]): 55.16%; viability at 0.02 µM (B16-F10 [5]): 81.5%; Activity (B16-F10 [6]): 12.4%; Activity (B16-F10 [7]): 5.68%; Activity (B16-F10 [8]): 0.466%
4 | COc1cc(C(=O)N2c3cc(Br)ccc3Cc3c2ccc(C)c3C)cc(OC)c1OC | 129 nM | 85 nM | 107 nM | 104 nM | –
5 | COc1cc(C(=O)N2c3ccccc3Cc3ccc4ccccc4c32)cc(OC)c1OC | > 10000 nM | > 10000 nM | > 10000 nM | > 10000 nM | –
6 | COc1cc(C(=O)N2c3ccccc3Cc3ccc(F)cc32)cc(OC)c1OC | > 10000 nM | 6900 nM | > 10000 nM | > 10000 nM | –
7 | COc1cc(C(=O)N2c3ccccc3Cc3c(Cl)cccc32)cc(OC)c1OC | 250 nM | 157 nM | 71 nM | 86 nM | –
8 | COc1cc(C(=O)N2c3ccccc3Cc3c(C)ccc(C)c32)cc(OC)c1OC | 62 nM | 56 nM | 30 nM | 49 nM | –
9 | COc1cc(C(=O)N2c3ccccc3Cc3ccccc32)cc(OC)c1OC | 257 nM | 146 nM | 160 nM | 1200 nM | IC50 (Tubulin): 1600 nM
10 | COc1cc(C(=O)N2c3ccccc3Cc3cc(C)ccc32)cc(OC)c1OC | 128 nM | 84 nM | 83 nM | 131 nM | –
11 | COc1cc(C(=O)N2c3ccccc3Cc3c(C)cccc32)cc(OC)c1OC | 172 nM | 91 nM | 102 nM | 909 nM | –
12 | COc1cc(C(=O)N2c3ccccc3Cc3ccc(Cl)cc32)cc(OC)c1OC | 427 nM | 211 nM | 58 nM | 189 nM | –
13 | COc1cc(C(=O)N2c3cc(F)ccc3Cc3cc4ccccc4cc32)cc(OC)c1OC | > 10000 nM | 752 nM | 216 nM | 676 nM | –
14 | COc1cc(C(=O)N2c3cc(Cl)ccc3Cc3ccc(Cl)cc32)cc(OC)c1OC | > 10000 nM | 1020 nM | 716 nM | 1030 nM | –
15 | COC(=O)c1ccc2c(c1)N(C(=O)c1cc(OC)c(OC)c(OC)c1)c1ccccc1C2 | 9370 nM | 7170 nM | 3280 nM | 8350 nM | –
16 | COc1ccc2c(c1)Cc1ccccc1N2C(=O)c1cc(OC)c(OC)c(OC)c1 | 103 nM | 80 nM | 91 nM | 105 nM | –
17 | COc1cc(C(=O)N2c3ccccc3C(c3ccccc3)c3ccccc32)cc(OC)c1OC | > 10000 nM | > 10000 nM | > 10000 nM | > 10000 nM | –
18 | COc1cc(C(=O)N2c3ccccc3Cc3ccc(C(F)(F)F)cc32)cc(OC)c1OC | 6870 nM | 5520 nM | 2860 nM | 6870 nM | –
19 | COc1cc(C(=O)N2c3cc(F)ccc3Cc3ccc(F)cc32)cc(OC)c1OC | > 10000 nM | 1980 nM | 661 nM | 2050 nM | –
20 | Cc1c(COc2cc(OCc3cccc(C#N)c3)c(CNC(C)(C)C(=O)O)cc2Cl)cccc1-c1ccccc1 | – | – | – | – | Activity [9]: Non-Toxic; inhibition in vivo at 10 mg/kg (B16-F10 [10]): 19%; Activity (B16-F10 [11]): ~45%; Activity (B16-F10 [12]): 14.6%
21 | COc1cc(C(=O)N2c3cc(C)ccc3Cc3ccc(F)cc32)cc(OC)c1OC | 240 nM | 274 nM | 30 nM | 188 nM | –
22 | COc1cc(C(=O)N2c3ccccc3Cc3cc(Cl)ccc32)cc(OC)c1OC | 191 nM | 106 nM | 69 nM | 78 nM | –
23 | COc1cc(C(=O)N2c3cccc(Cl)c3Cc3c(C)ccc(C)c32)cc(OC)c1OC | 429 nM | 845 nM | 184 nM | 586 nM | –
24 | COc1cc(C(=O)N2c3ccccc3Cc3cc(F)ccc32)cc(OC)c1OC | 256 nM | 144 nM | 35 nM | 98 nM | –
